Test results: patent US20170121319A1, “Herbicidal Compounds” (Syngenta Participations AG, priority 2014, published 2017)

How the values were obtained:
Format in all cases: in vivo
Parameters in all cases: key: 5=total damage to plant; 0=no damage to plant
[1] = test system: ABUTH = Abutilon theophrasti; test: Pre-emergence herbicidal activity, glasshouse pot test
Protocol: (§1) Seeds of a variety of test species were sown in standard soil in pots. After cultivation for one day (pre-emergence) under controlled conditions in a glasshouse (at 24/16° C., day/night; 14 hours light; 65% humidity), the plants were sprayed with an aqueous spray solution derived from the formulation of the technical active ingredient in acetone/water (50:50) solution containing 0.5% Tween 20 (polyoxyethelyene sorbitan monolaurate, CAS RN 9005-64-5). The test plants were then grown in a glasshouse under controlled conditions (at 24/16° C., day/night; 14 hours light; 65% humidity) and watered twice daily. After 13 days, the test was evaluated (5=total damage to plant; 0=no damage to plant). Pre- and post-emergence testing was carried out as detailed above on the compounds A1, A2, A4 and A5 and their respective S-enantiomers.

[2] = test system: AMARE = Amaranthus retroflexus; test: as above
Protocol: as §1

[3] = test system: ECHCG = Echinochloa crus-galli; test: as above
Protocol: as §1

LOLPE [4] = test: as above
Protocol: as §1

SETFA = Setaria faberi [5] = test: as above; settings: for SEFTA damage score (0-5): comparison of enantiomers
Protocol: as §1

ZEAMX = Zea mays [6] = test: as above
Protocol: as §1

[7] = test system: ABUTH = Abutilon theophrasti; test: Post-emergence herbicidal activity, glasshouse pot test
Protocol: (§2) Seeds of a variety of test species were sown in standard soil in pots. After 8 days cultivation (post-emergence) under controlled conditions in a glasshouse (at 24/16° C., day/night; 14 hours light; 65% humidity), the plants were sprayed with an aqueous spray solution derived from the formulation of the technical active ingredient in acetone/water (50:50) solution containing 0.5% Tween 20 (polyoxyethelyene sorbitan monolaurate, CAS RN 9005-64-5). The test plants were then grown in a glasshouse under controlled conditions (at 24/16° C., day/night; 14 hours light; 65% humidity) and watered twice daily. After 13 days, the test was evaluated (5=total damage to plant; 0=no damage to plant). Pre- and post-emergence testing was carried out as detailed above on the compounds A1, A2, A4 and A5 and their respective S-enantiomers.

[8] = test system: AMARE = Amaranthus retroflexus; test: as above
Protocol: as §2

[9] = test system: ECHCG = Echinochloa crus-galli; test: as above
Protocol: as §2

LOLPE [10] = test: as above
Protocol: as §2

SETFA = Setaria faberi [11] = test: as above; settings: for SEFTA damage score (0-5): comparison of enantiomers
Protocol: as §2

ZEAMX = Zea mays [12] = test: as above
Protocol: as §2

[13] = 1000 g/Ha, evaluated after 13 days
[14] = comparison of enantiomers, 62.5 g/Ha
[15] = comparison of enantiomers, 250 g/Ha

## CCO[C@@H]1C(O)N(c2cc(C(C)(C)F)on2)C(=O)N1C (stereo partly drawn) [Example A5]
[1]; [13]
  ABUTH damage score (0-5): 5
[1]; [14]
  ABUTH damage score (0-5): 5
[1]; [15]
  ABUTH damage score (0-5): 5
[2]; [13]
  AMARE damage score (0-5): 5
[2]; [14]
  AMARE damage score (0-5): 5
[2]; [15]
  AMARE damage score (0-5): 5
[3]; [13]
  ECHCG damage score (0-5): 5
[3]; [14]
  ECHCG damage score (0-5): 5
[3]; [15]
  ECHCG damage score (0-5): 2
LOLPE [4]; [13]
  LOLPE damage score (0-5): 5
LOLPE [4]; [14]
  LOLPE damage score (0-5): 4
LOLPE [4]; [15]
  LOLPE damage score (0-5): 5
SETFA = Setaria faberi [5]; [13]
  SETFA damage score (0-5): 5
SETFA = Setaria faberi [5]; 62.5 g/Ha
  SEFTA damage score (0-5): 5
SETFA = Setaria faberi [5]; 250 g/Ha
  SEFTA damage score (0-5): 5
ZEAMX = Zea mays [6]; [13]
  ZEAMX damage score (0-5): 3
ZEAMX = Zea mays [6]; [14]
  ZEAMX damage score (0-5): 5
ZEAMX = Zea mays [6]; [15]
  ZEAMX damage score (0-5): 5
[7]; [13]
  ABUTH damage score (0-5): 5
[7]; [14]
  ABUTH damage score (0-5): 5
[7]; [15]
  ABUTH damage score (0-5): 5
[8]; [13]
  AMARE damage score (0-5): 5
[8]; [14]
  AMARE damage score (0-5): 5
[8]; [15]
  AMARE damage score (0-5): 5
[9]; [13]
  ECHCG damage score (0-5): 5
[9]; [14]
  ECHCG damage score (0-5): 5
[9]; [15]
  ECHCG damage score (0-5): 5
LOLPE [10]; [13]
  LOLPE damage score (0-5): 5
LOLPE [10]; [14]
  LOLPE damage score (0-5): 5
LOLPE [10]; [15]
  LOLPE damage score (0-5): 5
SETFA = Setaria faberi [11]; [13]
  SETFA damage score (0-5): 5
SETFA = Setaria faberi [11]; 62.5 g/Ha
  SEFTA damage score (0-5): 5
SETFA = Setaria faberi [11]; 250 g/Ha
  SEFTA damage score (0-5): 5
ZEAMX = Zea mays [12]; [13]
  ZEAMX damage score (0-5): 5
ZEAMX = Zea mays [12]; [14]
  ZEAMX damage score (0-5): 5
ZEAMX = Zea mays [12]; [15]
  ZEAMX damage score (0-5): 5
